Laboratory results from PMC11903690 (Scientific Reports, 2025).

Tests used:
Experiment in all cases: microbe, parasite or virus in culture
Type in all cases: cell-based
[1] = tested on: SARS-CoV-2 delta (B.1.617.2); conditions: for Selectivity index: SARS-CoV-2δ, HEK293TA cells; for EC50: Severe acute respiratory syndrome coronavirus 2
SARS-CoV-2gamma (P.1) = conditions: for Selectivity index: SARS-CoV-2γ, HEK293TA cells; for EC50: Severe acute respiratory syndrome coronavirus 2
[2] = tested on: SARS-CoV-2 alpha (B.1.1.7); conditions: for Selectivity index: SARS-CoV-2α, HEK293TA cells; for EC50: Severe acute respiratory syndrome coronavirus 2

| SMILES | Selectivity index [1] | EC50 [1] | Selectivity index (SARS-CoV-2gamma (P.1)) | EC50 (SARS-CoV-2gamma (P.1)) | Selectivity index [2] | EC50 [2] |
| --- | --- | --- | --- | --- | --- | --- |
| O=C(CCCCCCCCc1ccc(O)c(O)c1)c1c(O)cccc1O [Compound 1, Malabaricone C] | 3.4 | 1900 nM | 3.6 | 1700 nM | 2.6 | 1900 nM |
| CC(C)C(=O)OC[C@H]1O[C@@H](n2ccc(NO)nc2=O)[C@H](O)[C@@H]1O [Molnupiravir] | 13 | 450 nM | 13 | 520 nM | 14.7 | 400 nM |
| CCC(CC)COC(=O)[C@H](C)N[P@](=O)(OC[C@H]1O[C@@](C#N)(c2ccc3c(N)ncnn23)[C@H](O)[C@@H]1O)Oc1ccccc1 [Remdesivir] |  | < 78 nM |  | < 78 nM |  | < 78 nM |
